Assay results reported in the NIST ThermoML archive (doi:10.1016/j.jct.2012.01.016).
Several values for one entry are separate records, joined by “and”; a condition that tells them apart may be missing. Equal values may be shown once.

Experiment: activity coefficient (dimensionless); of the first substance listed, at infinite dilution; xn = mol fraction of the nth substance listed
Conditions: Liquid, Headspace solid phase microextraction, x1 = 0

Row | SMILES | activity coefficient (298.15 K) | activity coefficient (308.15 K) | activity coefficient (318.15 K)
1 | Cc1ccccc1C [1,2-dimethylbenzene] + O=Cc1ccco1 | 4.12 and 3.74 | 4.44 and 3.55 | 6.77 and 4.61
2 | c1ccccc1 [benzene] + O=Cc1ccco1 | 2.61 and 2.45 | 2.93 and 2.4 | 3.87 and 2.89
3 | C1CCCCC1 [cyclohexane] + O=Cc1ccco1 | 15.7 and 15.5 | 13.5 and 12.9 | 12 and 10.9
4 | C1CCCC1 [cyclopentane] + O=Cc1ccco1 | 11.6 and 11.4 | 10.7 and 10.1 | 10.4 and 9.3
5 | CCc1ccccc1 [ethylbenzene] + O=Cc1ccco1 | 4.84 and 4.52 | 5.02 and 4.35 | 7.21 and 5.25
6 | CCCCCCC [heptane] + O=Cc1ccco1 | 32 and 31.6 | 30.8 and 29.6 | 28.3 and 26.4
7 | CCCCCC [hexane] + O=Cc1ccco1 | 25.6 and 25.3 | 23.6 and 22.8 | 22.2 and 21.2
8 | CCCCC [pentane] + O=Cc1ccco1 | 20.8 and 20.4 | 17.9 and 16.9 | 16.8 and 15
9 | Cc1ccccc1 [toluene] + O=Cc1ccco1 | 3.72 and 3.46 | 3.79 and 3.33 | 5.3 and 3.8
